PMC9386806 (ACS Omega, 2022)

Molecular target: hCA II (Homo sapiens, UniProt P00918)
Assay: biochemical

Question: Which IC50 does the source give for `COC(=O)C1=C(N)Oc2c(c(=O)oc3cc(O)ccc23)C1c1ccccc1OCc1cc2ccccc2oc1=O` (stereo not shown) [Compound 12i, 2-Amino-8-hydroxy-5-oxo-4-[2-(2-oxo-2H-chromen-3-ylmethoxy)-phenyl]-4H,5H-pyrano[3,2-c]chromene-3-carboxylic Acid Methyl Ester] here?
Answer: 4.91 ± 1.13 µM

Question: `N#CC1=C(N)Oc2c(c(=O)oc3cc(O)ccc23)C1c1ccccc1OCc1cc2ccccc2oc1=O` (stereo not shown) [Compound 12h, 2-Amino-8-hydroxy-5-oxo-4-[2-(2-oxo-2H-chromen-3-ylmethoxy)-phenyl]-4H,5H-pyrano[3,2-c]chromene-3-carbonitrile] was tested. Which IC50 did it give?
Answer: 4.55 ± 0.22 µM

Question: Which IC50 does the source give for `COC(=O)C1=C(N)Oc2c(c(=O)oc3ccc(C)cc23)C1c1ccccc1OCc1cc2ccccc2oc1=O` (stereo not shown) [Compound 12e, 2-Amino-9-methyl-5-oxo-4-[2-(2-oxo-2H-chromen-3-ylmethoxy)-phenyl]-4H,5H-pyrano[3,2-c]chromene-3-carboxylic Acid Methyl Ester] here?
Answer: 21.8 ± 3.32 µM

Question: How did the IC50 turn out when `CCOC(=O)C1=C(N)Oc2c(c(=O)oc3cc(O)ccc23)C1c1ccccc1OCc1cc2ccccc2oc1=O` (stereo not shown) [Compound 12j, 2-Amino-8-hydroxy-5-oxo-4-[2-(2-oxo-2H-chromen-3-ylmethoxy)-phenyl]-4H,5H-pyrano[3,2-c]chromene-3-carboxylic Acid Ethyl Ester] was run?
Answer: 7.78 ± 0.08 µM
